The text below walks through data of article PMC8151276, “An Integrated Approach toward NanoBRET Tracers for Analysis of GPCR Ligand Engagement” (Molecules, 2021).

Structures are written as SMILES.

Common to all, as to type: binding
One experiment deals with T1, NPBWR1 (Homo sapiens, UniProt P48145).
T1 construct: purchased Promega (in-house HiBiT-GPCR construct library, NanoBRET)
T1 sequence (P48145 1-328): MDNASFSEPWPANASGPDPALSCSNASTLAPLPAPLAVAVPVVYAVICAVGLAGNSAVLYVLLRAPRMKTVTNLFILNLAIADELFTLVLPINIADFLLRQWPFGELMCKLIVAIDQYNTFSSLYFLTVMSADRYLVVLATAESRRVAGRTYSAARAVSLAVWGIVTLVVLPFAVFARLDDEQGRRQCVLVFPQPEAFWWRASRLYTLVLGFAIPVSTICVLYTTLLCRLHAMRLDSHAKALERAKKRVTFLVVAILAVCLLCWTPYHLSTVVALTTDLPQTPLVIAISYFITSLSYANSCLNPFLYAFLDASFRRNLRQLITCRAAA
Put plainly: NanoBRET screen HiBiT-NPBWR1 in HEK293. As for the experimental part:
(§1) Each tracer candidate was screened across the entire library of HiBiT-GPCR constructs using NanoBRET as the detection modality. As depicted in Figure 4A, the specificity of interactions was evaluated through decrease in BRET due to competitive displacement of a bound tracer by excess parental compound. Each tracer was analyzed for binding to each HiBiT-GPCR fusion in the absence and in the presence of competing parental compound. Briefly, HEK293 cells were transfected with HiBiT-GPCR constructs diluted into promoterless DNA to reduce expression and maximize translocation to the cell surface. Each tracer candidate was then screened at concentrations of 1 μM and 0.1 μM across cells expressing these fusions. Cells were treated for 1.5 h with tracer either alone or in the presence of 20 μM competing parental compound (i.e., control). BRET was measured upon addition of purified LgBiT and subsequent complementation with HiBiT genetically fused to a GPCR. The specificity of interactions was assessed through a decrease in BRET signal due to competitive displacement of the bound tracer. To further gauge the robustness of these interactions, the fold response over the control (i.e., BRETtracer/BRETcontrol) was calculated. We chose a 1.5-fold response, which translates to ≥7-fold signal over noise as the minimal threshold required to score an interaction as positive. […]. Below we highlight the screening results obtained for our exemplary fluorescent tracers based on Clozapine, Amitriptyline and AZD1283.
(§2) HiBiT-GPCR DNA constructs were diluted in 10 mM Tris pH 8 to a final concentration of 0.01 μg/μL, arrayed in 96-well plates and stored at −20 °C. For transfection, HEK293 cells were suspended in Opti-MEM (without phenol red) supplemented with 2% fetal bovine serum (Seradigm) and 100 units/mL penicillin–streptomycin (Gibco) at a final concentration of 220,000 cells/mL and dispensed into white 96-well plates at 90 μL/well. Subsequent transfections and screens were carried using an Agilent Bravo Automated Liquid Handling Platform. First, the 96-well HiBiT DNA arrays were diluted 25-fold in Opti-MEM (without serum or phenol red) to a final concentration of 0.0004 μg/μL and 20 μL of the diluted DNAs were transferred into new 96-well plates. Next, promoterless carrier DNA (1 μg/μL) was diluted 25-fold (0.04 μg/μL) and then dispensed into the diluted arrays at 20 μL/well. Following brief mixing, Viafect transfection reagent (Promega) diluted 16-fold into Opti-MEM was dispensed into the plates at 40 μL/well. After mixing by pipetting, plates were incubated for 10 min on the pipetting station deck. The DNA-transfection reagent complexes were then added to plates containing cells. To facilitate the screen, 10 μL of DNA-transfection reagent complexes were added in duplicates to the top 4 and bottom 4 rows, resulting in two identical 48-well arrays per plate. Plates with transfected cells were incubated for 18–20 h at 37 °C/5% CO2. A screen of each tracer across the entire library using two different concentrations requires duplicate plates of transfected cells. Depending on the number of tracers being screened, transfections can be scaled up using the same ratios. The next day, for each tracer, four 20× screening solutions in tracer dilution buffer (Promega) were prepared: two duplicates at final concentration of 20 μM and two duplicates at a final concentration of 2 μM. A competing unmodified compound was added to one of each duplicate at a final concentration of 400 μM. The four resulting solutions were diluted 4-fold in Opti-MEM without serum or phenol red to generate 5× solutions (5 µM and 0.5 µM tracer +/− 100 μM competing compound). To screen the library, a BioTek MultiFlo FX liquid dispenser was used to dispense 22.5 µL of tracer solution to the top 4 rows and 22.5 µL tracer + competing compound solution to the 4 bottom rows. Plates were briefly mixed on an orbital shaker and incubated for 1.5 h at room temperature. […]

A further experiment concerns the target T2, XCR1 (Homo sapiens, UniProt P46094).
T2 construct: purchased Promega (in-house HiBiT-GPCR construct library, NanoBRET)
T2 sequence (P46094 1-333): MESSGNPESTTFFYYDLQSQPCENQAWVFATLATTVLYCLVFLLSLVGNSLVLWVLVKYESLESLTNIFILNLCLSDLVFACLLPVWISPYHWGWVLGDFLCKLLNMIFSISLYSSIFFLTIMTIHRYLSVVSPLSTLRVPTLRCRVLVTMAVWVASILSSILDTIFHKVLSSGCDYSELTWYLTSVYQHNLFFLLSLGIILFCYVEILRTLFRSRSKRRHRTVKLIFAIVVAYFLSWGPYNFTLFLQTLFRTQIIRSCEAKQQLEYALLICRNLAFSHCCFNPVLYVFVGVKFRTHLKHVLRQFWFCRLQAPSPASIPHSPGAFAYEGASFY
Put plainly: NanoBRET screen HiBiT-XCR1 in HEK293. As to the method:
as §1, §2
Background: BRET reads energy transfer from a luciferase to a nearby fluorophore.

The next experiment concerns the target T3, CXCR6 (Homo sapiens, UniProt O00574).
T3 construct: purchased Promega (in-house HiBiT-GPCR construct library, NanoBRET)
Put plainly: NanoBRET screen HiBiT-CXCR6 in HEK293. As for the experimental part: as §1, §2

A further experiment has as its target T4, SSTR4 (Homo sapiens, UniProt P31391).
T4 construct: purchased Promega (in-house HiBiT-GPCR construct library, NanoBRET)
Put plainly: NanoBRET screen HiBiT-SSTR4 in HEK293. As to the method: as §1, §2

Another experiment concerns the target T5, HCRTR1 (Homo sapiens, UniProt O43613).
T5 construct: purchased Promega (in-house HiBiT-GPCR construct library, NanoBRET)
T5 sequence (O43613 1-425): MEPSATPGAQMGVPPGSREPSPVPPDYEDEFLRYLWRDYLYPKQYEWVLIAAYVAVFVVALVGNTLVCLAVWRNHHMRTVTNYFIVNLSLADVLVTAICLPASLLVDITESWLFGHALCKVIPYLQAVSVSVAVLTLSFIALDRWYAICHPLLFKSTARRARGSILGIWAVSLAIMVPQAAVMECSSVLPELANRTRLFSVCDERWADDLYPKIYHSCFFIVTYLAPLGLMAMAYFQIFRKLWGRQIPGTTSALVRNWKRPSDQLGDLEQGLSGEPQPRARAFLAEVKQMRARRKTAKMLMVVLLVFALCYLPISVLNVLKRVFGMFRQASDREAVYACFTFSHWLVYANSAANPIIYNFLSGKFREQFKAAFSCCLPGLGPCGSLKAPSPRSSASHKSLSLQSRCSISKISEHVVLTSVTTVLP
Put plainly: NanoBRET screen HiBiT-HCRTR1 in HEK293. As for the experimental part:
as §1, §2

The mark [1] stands for this setting: tracer at 0.1μM, listed as amitriptyline-b-2-NB590.
[2] abbreviates: tracer at 1μM, listed as amitriptyline-b-2-NB590.

T4 sequence (P31391 whole entry): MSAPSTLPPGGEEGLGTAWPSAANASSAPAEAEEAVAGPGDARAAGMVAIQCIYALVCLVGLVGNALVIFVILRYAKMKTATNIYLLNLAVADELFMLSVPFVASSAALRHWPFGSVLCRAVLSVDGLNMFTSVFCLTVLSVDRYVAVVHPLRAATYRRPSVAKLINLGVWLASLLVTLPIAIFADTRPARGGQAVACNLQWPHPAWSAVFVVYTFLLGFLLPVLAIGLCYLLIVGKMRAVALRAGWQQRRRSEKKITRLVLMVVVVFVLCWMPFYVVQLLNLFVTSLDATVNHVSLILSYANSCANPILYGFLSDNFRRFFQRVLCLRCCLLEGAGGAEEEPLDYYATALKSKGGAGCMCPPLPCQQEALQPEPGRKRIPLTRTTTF
T3 sequence (O00574 whole entry): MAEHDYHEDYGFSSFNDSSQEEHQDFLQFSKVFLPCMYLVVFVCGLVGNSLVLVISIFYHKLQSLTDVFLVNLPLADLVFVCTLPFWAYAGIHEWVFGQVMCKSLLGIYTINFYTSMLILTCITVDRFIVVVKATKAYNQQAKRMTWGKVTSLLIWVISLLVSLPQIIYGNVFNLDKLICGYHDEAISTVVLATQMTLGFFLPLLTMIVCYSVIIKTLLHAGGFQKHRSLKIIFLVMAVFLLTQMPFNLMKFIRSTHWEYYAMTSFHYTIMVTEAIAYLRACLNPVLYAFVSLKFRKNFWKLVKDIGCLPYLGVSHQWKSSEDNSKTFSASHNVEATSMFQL

`COc1ccccc1N1CCN(CCCCN2C(=O)c3ccc(CNC(=O)CCOCCNC(=O)c4ccc(CNC(=O)CCc5ccc6n5[B-](F)(F)[N+]5=C(c7ccc[nH]7)C=CC5=C6)cc4)cc3C2=O)CC1` [NAN-190-3-NB590]: the “NanoBRET Fold Response” value is recorded as 0.92 at NPBWR1 (NPBWR1, tracer 0.1μM); 0.91 on NPBWR1 (NPBWR1, tracer 1μM); 1.29 on XCR1 (XCR1, tracer 0.1μM); 1.34 on XCR1 (XCR1, tracer 1μM); 1.15 at CXCR6 (CXCR6, tracer 0.1μM); 0.93 on CXCR6 (CXCR6, tracer 1μM). Also, the “NanoBRET Fold Response” value came to 0.90 at SSTR4 (SSTR4, tracer 0.1μM); 1.05 at SSTR4 (SSTR4, tracer 1μM); 0.98 on HCRTR1 (HCRTR1, tracer 0.1μM); 0.91 at HCRTR1 (HCRTR1, tracer 1μM).
As for `N#CN=C(NCCCOc1cccc(CN2CCCCC2)c1)NCCNC(=O)CCOCCOCCOCCOCCNC(=O)CCc1ccc2n1[B-](F)(F)[N+]1=C(c3ccc[nH]3)C=CC1=C2` [Aminopotentidine-2-NB590], the “NanoBRET Fold Response” value at NPBWR1 (NPBWR1, tracer 0.1μM) was determined as 0.94; on NPBWR1 (NPBWR1, tracer 1μM), 0.95; at XCR1 (XCR1, tracer 0.1μM), 1.11; at XCR1 (XCR1, tracer 1μM), 0.87; on CXCR6 (CXCR6, tracer 0.1μM) it was 1.06; at CXCR6 (CXCR6, tracer 1μM), 1.03. The “NanoBRET Fold Response” value is 1.08 at SSTR4 (SSTR4, tracer 0.1μM); 1.00 on SSTR4 (SSTR4, tracer 1μM); 0.98 on HCRTR1 (HCRTR1, tracer 0.1μM); 0.95 at HCRTR1 (HCRTR1, tracer 1μM).
In the case of `CN(C)CCC=C1c2ccccc2CCc2ccc(C(=O)NCCNC(=O)CCOCCOCCOCCOCCNC(=O)CCc3ccc4n3[B-](F)(F)[N+]3=C(c5ccc[nH]5)C=CC3=C4)cc21` [Amitriptyline-b-2-NB590], the “NanoBRET Fold Response” value at NPBWR1 (tracer at 0.1μM) is 1.04; at NPBWR1 (tracer at 1μM) it was 1.03; on XCR1 (setting [1]) it was 0.92; at XCR1 (setting [2]), 0.83; at CXCR6 (setting [1]) it was 0.95; at CXCR6 (setting [2]) it was 1.02. Further, the “NanoBRET Fold Response” value was 1.16 on SSTR4 (tracer at 0.1μM), 0.99 at SSTR4 (tracer at 1μM), 1.08 at HCRTR1 (setting [1]) and 0.91 at HCRTR1 (setting [2]).
On to `O=C(CCOCCOCCOCCOCCNC(=O)CCc1ccc2n1[B-](F)(F)[N+]1=C(c3ccc[nH]3)C=CC1=C2)NCCCN1CCN(C2=Nc3ccccc3Oc3ccc(Cl)cc32)CC1` [Loxapine-a-2-NB590], for which the “NanoBRET Fold Response” value at NPBWR1 (NPBWR1, tracer 0.1μM) worked out at 1.02; at NPBWR1 (NPBWR1, tracer 1μM) it was 0.93; at XCR1 (XCR1, tracer 0.1μM), 0.44; on XCR1 (XCR1, tracer 1μM), 0.91; at CXCR6 (CXCR6, tracer 0.1μM) it was 1.00; on CXCR6 (CXCR6, tracer 1μM), 1.01. For the same compound, the “NanoBRET Fold Response” value at SSTR4 (SSTR4, tracer 0.1μM) is 1.00; on SSTR4 (SSTR4, tracer 1μM) it was 1.09; on HCRTR1 (HCRTR1, tracer 0.1μM) it was 0.93; at HCRTR1 (HCRTR1, tracer 1μM), 1.09.
In the case of `CCCn1c(=O)c2[nH]c(-c3ccc(OCC(=O)NCCNC(=O)CCOCCNC(=O)c4ccc(CNC(=O)CCc5ccc6n5[B-](F)(F)[N+]5=C(c7ccc[nH]7)C=CC5=C6)cc4)cc3)nc2n(CCC)c1=O` [XAC-3-NB590], the “NanoBRET Fold Response” value at NPBWR1 (NPBWR1, tracer 0.1μM) came to 1.03; at NPBWR1 (NPBWR1, tracer 1μM), 0.96; at XCR1 (XCR1, tracer 0.1μM) it was 0.87; on XCR1 (XCR1, tracer 1μM) it was 0.98; at CXCR6 (CXCR6, tracer 0.1μM), 1.06; on CXCR6 (CXCR6, tracer 1μM), 1.09. Further, the “NanoBRET Fold Response” value on SSTR4 (SSTR4, tracer 0.1μM) is 1.01; at SSTR4 (SSTR4, tracer 1μM), 0.93; on HCRTR1 (HCRTR1, tracer 0.1μM), 0.91; at HCRTR1 (HCRTR1, tracer 1μM) it was 0.88.
With `CCOC(=O)c1cc(C#N)c(N2CCC(C(=O)NS(=O)(=O)Cc3ccccc3/C=C/C(=O)NCCNC(=O)CCc3ccc4n3[B-](F)(F)[N+]3=C(c5ccc[nH]5)C=CC3=C4)CC2)nc1C` [AZD1283-1-NB590], the “NanoBRET Fold Response” value on NPBWR1 (NPBWR1, 0.1μM) came out at 1.02; on NPBWR1 (NPBWR1, 1μM) it was 0.98; on XCR1 (XCR1, 0.1μM), 1.04; on XCR1 (XCR1, 1μM), 1.00; at CXCR6 (CXCR6, 0.1μM) it was 0.89; at CXCR6 (CXCR6, 1μM), 0.29. Also, the “NanoBRET Fold Response” value at SSTR4 (SSTR4, 0.1μM) is 1.10; on SSTR4 (SSTR4, 1μM), 1.07; on HCRTR1 (HCRTR1, 0.1μM), 1.00; on HCRTR1 (HCRTR1, 1μM), 1.09.
